From publication PMC10805834, “Population pharmacokinetic modeling of ilaprazole in healthy subjects and patients with duodenal ulcer in China” (Frontiers in Pharmacology, 2024)
Read-outs that look alike come from different tables or passages of the source.

Legend:
[1] = Population pharmacokinetic (PopPK) model of ilaprazole, intravenous infusion, pooled data of 4 phase I and 1 phase IIa trials; assay type: in vivo, human; parameters: Disease status effect on Vp (Disease status = 1): scale not given here; key to ω^2 Vp, inter-individual variability / ω^2 CL, inter-individual variability: variance ω^2 of log-normal (exponential) inter-individual random effect η
Text: Data used to construct the PopPK model in current study were collected from 5 clinical trials of ilaprazole injection, including 4 phase I (No. CTR20132848, No. CTR20140147, No. CTR20150686, No. CTR20150685) clinical trials in healthy subjects, and 1 phase IIa (No. CTR20132846) clinical trial in patients with duodenal ulcer ([Wang et al., 2016a]; [Wang et al., 2016b]; [Wang et al., 2019]). All above studies included in this analysis were reviewed and approved by the Institutional Ethics Committee, registered in the China Clinical Trials Registry Center (chinadrugtrials.org.cn), and conducted in strict adherence to Good Clinical Practice and the Declaration of Helsinki.
The single-dose phase I study (No. CTR20132848) was a randomized, open, four-cycle crossover trial in which 16 healthy subjects were randomized into four groups and were given either oral control drug or intravenous infusion of 5, 10 or 20 mg of ilaprazole during different cycles, after a 1-week washout period, and then separately after crossover. In the multiple-dose phase I study (No. CTR20140147), 10 healthy subjects received a 5-day continuous intravenous infusion of 10 mg ilaprazole once daily. The next studies (No. CTR20150686, No. CTR20150685) were conducted in healthy subjects with a single 30 mg intravenous infusion of ilaprazole, and a 20 mg loading dose combined with a 10 mg maintenance dose for a total of 3 days of intravenous infusion of ilaprazole. In the phase IIa study (No. CTR20132846), 20 patients with duodenal ulcer were randomized to receive a 20 mg loading dose plus a 10 mg maintenance dose of intravenous infusion of ilaprazole once daily or a positive control drug.
Blood samples were collected for clinical pharmacokinetic analysis of ilaprazole in all studies, and the specific sampling designs are summarized in Table 1. To determine the concentration of ilaprazole in human plasma, a validated UPLC-MS/MS method was utilized, with the samples being processed by protein precipitation ([Wang et al., 2012]). The analytes were chromatographed on Acquity UPLC BEH C18 column (waters, MA, United States), and the detection was performed on Xevo-TQS tandem mass spectrometer coupled with an electro-spray ionization (ESI) source (waters, MA, United States). It is notable that ilaprazole concentration remained linear in the range of 1–1,000 ng/mL, with the lower limit of quantification of 1 ng/mL. After excluding 5 concentrations below the limit of quantification (BLQ) and 7 concentrations not detected (ND), a total of 1,560 plasma concentration from 58 subjects who received intravenous infusion of ilaprazole were included in the final PopPK analysis.
Based on the pooled data from the clinical studies mentioned above, the PopPK model for ilaprazole was constructed using non-linear mixed-effects model of Phoenix NLME (version 8.3; Certara Inc, Princeton, NJ, United States). We developed the PopPK model using the first-order conditional estimation extended least squares (FOCE-ELS) method. The specific modeling steps are as follows.
For the basic structural model, one-compartment and two-compartment models were tested to fit the data set according to the plasma concentration-time profile of ilaprazole, plotted on a semi-logarithmic scale. Based on the fact that the distribution of the population pharmacokinetic (PK) parameters essentially conforms to a log-normal distribution, the inter-individual variability in pharmacokinetic parameters was estimated by an exponential model (Eq. 1). Pik=Ppoppk*exp ηik (1)
In Eq. 1, Pik represents the kth pharmacokinetic parameter for the ith individual, Ppopk represents the typical value of the parameter in population, and ηik depicts the deviation between the kth pharmacokinetic parameter of the ith individual and the typical value of the population (i.e., random effect), It is assumed that η follows a normal distribution centered at 0 with variance ω^2. […]

[2] = parameters: method as in Sachs et al., 2006; Shin et al., 2014; conditions: ref Sachs et al., 2006; Shin et al., 2014; cited from earlier work
[3] = cited from earlier work
[4] = parameters: method as in Shen et al., 2020; Jiang et al., 2021; conditions: rats; intravenous injection of 14C-ilaprazole; ref Shen et al., 2020; Jiang et al., 2021; cited from earlier work
[5] = cited from earlier work; remark: listed apart in the source
[6] = parameters: method as in Wang et al., 2019; conditions: ref Wang et al., 2019, cited from earlier work

CL, clearance of central compartment ([1]; bootstrap median (n = 1,000)): 3.394 L/h
V, volume of central compartment ([1]; bootstrap median (n = 1,000)): 6.819 L
Vp, volume of peripheral compartment ([1]; bootstrap median (n = 1,000)): 5.480 L
WT effect on Vp ([1]; bootstrap median (n = 1,000)): 1.573
σmult, residual variability ([1]; bootstrap median (n = 1,000)): 0.182
ω^2 CL, inter-individual variability ([1]; bootstrap median (n = 1,000)): 0.057
ω^2 V, inter-individual variability ([1]; bootstrap median (n = 1,000)): 0.013
ω^2 Vp, inter-individual variability ([1]; bootstrap median (n = 1,000)): 0.033
clearance ([1]; both sexes, human, plasma, intravenous, final model estimate, read-out: CL, clearance of central compartment, typical value (converted)): 56.6 mL/min
ω^2 CL, inter-individual variability ([1]; final model estimate): 0.059
ω^2 V, inter-individual variability ([1]; final model estimate): 0.013
ω^2 Vp, inter-individual variability ([1]; final model estimate): 0.032
Vp, volume of peripheral compartment, typical value ([1]; final model estimate, median weight 60.6 kg): 5.544 L
σmult, residual variability ([1]; final model estimate, multiplicative residual error): 0.184
WT effect on Vp ([1]; final model estimate, power exponent on Weight/60.6): 1.545
SMILES: COc1ccnc(C[S+]([O-])c2nc3cc(-n4cccc4)ccc3[nH]2)c1C (centres unmarked) [ilaprazole, 2-[[(4-methoxy-3-methyl)-2-pyridinyl]methyl-sulfinyl]-5-(1H-pyrol-1-yl)-1H-benzimidazole]
Disease status effect on Vp (Disease status = 1) ([1]; bootstrap median (n = 1,000), duodenal ulcer): 0.356
Disease status effect on Vp (Disease status = 1) ([1]; final model estimate, Disease status = 1 for duodenal ulcer): 0.356
V, volume of central compartment, typical value ([1]; final model estimate, IV infusion, Chinese healthy subjects and duodenal ulcer patients): 6.795 L
half-life (t1/2) [2]: 4.7 to 5.3 h
plasma protein binding capacity [3]: more than 97%
radioactive signal in tissues/organs [4]: can still be observed in the stomach after 24 h
LogP [5]: 3.04
AUC0‐∞ ([6]; duodenal ulcers patients): 4900 ng·h/mL
Cmax ([6]; duodenal ulcers patients): 1,540 ng/mL
AUC0‐∞ ([6]; healthy subjects): 7400 ng·h/mL
Cmax ([6]; healthy subjects): 1871.3 ng/mL
